Experimental data: patent US20260185056A1, “TRIPLE TISSUE CULTURE FUSION” (IMBA - INSTITUT FÜR MOLEKULARE BIOTECHNOLOGIE GMBH, priority 2022, published 2026)
Several values for one entry are separate records, joined by “and”; a condition that tells them apart may be missing. Equal values may be shown once. Where a name gives a salt, the structure may show the parent alone.

Experiments:
Type in all cases: cell-based, human
[1] = system: ventral midbrain organoids; assay: CHIR dose curve (Wnt activation) for midbrain induction in ventral midbrain organoids (qPCR OTX2, FOXA2, TH)
Experimental: FIG. 2A-D: qPCR analysis of markers of ventral midbrain of the dose curving experiment to generate ventral midbrain organoids. Two separate dose curving experiments were performed, where first the correct dosage of sonic hedgehog activation was tested (FIG. 2A, floor plate marker FOXA2). Secondly, we performed qPCR to test for appropriate concentrations of posteriorization using Wnt activation. Dopaminergic neurons are born in the very ventral floor plate of the posterior midbrain, next to the midbrain-hindbrain boundary, thus the Forebrain and Midbrain marker OTX2 should still be expressed, whereas the hindbrain is OTX2 negative. We found a concentration of 0.8-1 μM sufficient to introduce midbrain (FIG. 2B), while the floor plate marker FOXA2 was still expressed (FIG. 2C). qPCR for the dopaminergic marker TH (Tyrosine hydroxylase, the rate-limiting enzyme for dopamine synthesis) confirmed this concentration of Wnt activation, with a sharp drop of TH expression starting at 1.2 μM CHIR (FIG. 2D).
All qPCR data are relative to the expression of TBP.
For each condition, 6-8 organoids were collected at indicated time points into 2 ml RNAse-free tubes. RNA was extracted using the Rneasy mini kit (Qiagen). […]
Quantification was performed in excel by calculating ΔCt relative to TBP. […]

[2] = system: VM, striatal and cortical neurons of fused organoids; assay: Chronic cocaine treatment of fused organoids: GCAMP6S calcium imaging; conditions: for calcium event frequency: VM, striatal and cortical patterned neurons
Experimental: (§1) A, Schematic for the treatment of fused organoids with cocaine. […] Functional, morphological and transcriptional analysis was performed on day 130. B, Representative images of dopaminergic (TH^+) axons in striatal and cortical tissue in control, chronic and withdrawal fused organoids. C, Schematic for the extraction of varicosity density and varicosity diameter in dopaminergic axons. D, Quantifications of TH^+ varicosity density in striatal and cortical tissue. N=6-8 organoids per condition, 39-49 axons. E, Measurement of varicosity diameter (axon average) in striatal and cortical tissue. N=6-8 organoids, 36-47 axons per condition and 1055|1552|1347 (striatal) and 923|1063|1340 (cortical) boutons measured. F, Schematic of the parameters' frequency and duration from GCAMP traces after extraction with CaImAn. G-H, fused organoids with GCAMP6S expression in either VM, striatal or cortical tissue were recorded on day 130 in control, chronic and withdrawal conditions (10-21 organoids per condition). […] H, Analysis of calcium event frequency of striatal (n=248|245|680) and cortical (175|936|885) neurons in control, chronic and withdrawal conditions. I-J, Volcano plot comparing bulk RNAseq data of day 130 forebrain organoids chronic versus control (I) and withdrawal versus control (J) (n=6-9 organoids of 2-3 batches). […] Samples were analyzed with one-way ANOVA followed by unpaired Mann-Whitney test.
(§2) A, Representative 130 day old GCAMP recordings of fused organoids with Syn-GCAMP expression either in the cortical, or striatal, or VM tissue in control (left), chronic (middle) and withdrawal (right) condition. […] D, Analysis of calcium event frequency of VM (n=100|278|115) neurons in control, chronic and withdrawal conditions. […] Samples were analyzed with one-way ANOVA followed by unpaired Mann-Whitney test (C, D). E-F, Volcano plots of differentially expressed genes in VM tissue in chronic versus control I and withdrawal versus control (F). G-I, GSEA analysis of three GO terms associated with neural circuit formation (Dendrite Development, Axon Development and Synapse Organization) in forebrain chronic vs control (top) and forebrain withdrawal versus control (bottom).
Organoids were grown until […]. GCAMP was recorded using an Olympus Spinning Disk (see Microscopy section). In brief, 20× magnification and an exposure time of 65 ms per frame (continuous recording) were used for up to 6.5 min of continuous recording. For trace extraction, recordings were scaled down from 2048×2048 to 512×512 pixels. Trace extraction was performed using the opensource software package CaImAn (Flatiron Institute).
(§3) Here, we used the neural multi-tissue organoids to test the effects of cocaine on the establishment of the dopaminergic system. Cocaine is a dopamine reuptake inhibitor, which binds to the dopamine transporter (DAT) and inhibits the reuptake of dopamine after release and thus increases the available levels of dopamine to target cells. While the effects of cocaine on the adult brain are relatively well understood, not much is known about the effects of cocaine on the development of the CNS-predominantly because of the lack of an effective model system. We tested the effects of chronic cocaine exposure and its potential effect on the establishment of the dopaminergic system. […] We chronically treated fused organoids with cocaine from day 40 until day 130 and generated a withdrawal condition which was not exposed to cocaine from day 105 onwards (FIG. 17A).
In vivo, cocaine exposure has been associated with changes in neural activity.

[3] = system: dopaminergic (TH+) axons in striatal and cortical tissue of fused organoids; assay: Chronic cocaine treatment of fused organoids: TH+ varicosity density and diameter; conditions: for density of TH+ varicosities on axons / diameter of TH+ varicosities: chronic 0.7 μM, vs control; for density of TH+ varicosities on axons: 1 h every 3 days, day 40-130; for diameter of TH+ varicosities: day 130
Experimental: A, Schematic for the treatment of fused organoids with cocaine. […] Functional, morphological and transcriptional analysis was performed on day 130. B, Representative images of dopaminergic (TH^+) axons in striatal and cortical tissue in control, chronic and withdrawal fused organoids. C, Schematic for the extraction of varicosity density and varicosity diameter in dopaminergic axons. D, Quantifications of TH^+ varicosity density in striatal and cortical tissue. N=6-8 organoids per condition, 39-49 axons. E, Measurement of varicosity diameter (axon average) in striatal and cortical tissue. N=6-8 organoids, 36-47 axons per condition and 1055|1552|1347 (striatal) and 923|1063|1340 (cortical) boutons measured. F, Schematic of the parameters' frequency and duration from GCAMP traces after extraction with CaImAn. G-H, fused organoids with GCAMP6S expression in either VM, striatal or cortical tissue were recorded on day 130 in control, chronic and withdrawal conditions (10-21 organoids per condition). […] 1776|2144|4254 individual calcium events (striatal) and 1437|6931|8000 individual calcium events (cortical). H, Analysis of calcium event frequency of striatal (n=248|245|680) and cortical (175|936|885) neurons in control, chronic and withdrawal conditions. I-J, Volcano plot comparing bulk RNAseq data of day 130 forebrain organoids chronic versus control (I) and withdrawal versus control (J) (n=6-9 organoids of 2-3 batches). […] Samples were analyzed with one-way ANOVA followed by unpaired Mann-Whitney test.
2Eci tissue clearing was performed as previously described (Masselink & Reumann, et al., Development 146, 2019). In brief, organoids were fixed with 4% formaldehyde in PBS for 4 h at RT. For 3D immunohistochemistry, PBS-TxDB was prepared: 10×PBS, 5% BSA and 2% TX100 were pre-mixed and filled up with distilled water to achieve approx. 70% of aimed volume (e.g. for 11 of PBS-TxDB, 100 ml of 10×PBS, 50 g BSA and 20 ml TX100 were used and filled up to 700 ml with distilled water. 20% DMSO was then added slowly under heavy stirring-rapid addition of DMSO may result in irreversible BSA aggregation. The solution was filled up to 100% with distilled water and sterile filtered. PBS-TxDB is stable at RT for at least several weeks, or at 4° C. for up to a year.
Organoids were blotted/permeabilized on a rotor or shaking plate for 1-2 days in 10 ml PBS-TxDB at RT. Organoids (dependent on the size, between 3 and 6) were then transferred into 2 ml Eppendorf tubes containing primary antibody solution in PBS-TxDB (between 500 μl to 1 ml) and transferred to a rotor or shaking plate for 5 days. Organoids were then washed in 10 ml PBS-TxDB for 2 days (1× rinse, 3×PBS-TxDB exchange) and the same steps were repeated for secondaries. After washing off the residual secondaries, organoids were washed in PBS for 1 h and then fixed in 4% Formaldehyde solution for 30 min-2 h. Organoids were then ready to be dehydrated in a 1-Propanol gradient (30%, 50%, 70%, 100%, 100%, 4-8 h per step). As no endogenous fluorescence had to be maintained, pH adjustment of the 1-Propanol was skipped. After dehydration, organoids were transferred into Ethyl Cinnamate and were ready for imaging as soon as completely transparent (1-3 h or overnight at RT). Cleared organoids were stored at room temperature and should not be transferred to 4° C., as Ethyl Cinnamate crystallizes out at lower temperatures. […]

[4] = system: forebrain and VM tissue of fused organoids; assay: Chronic cocaine treatment of fused organoids: bulk RNAseq; conditions: for transcriptional change (bulk RNAseq): day 130
Experimental: as §1, §2, §3

Q: Which results are given for `Cc1cnc(-c2cnc(NCCNc3ccc(C#N)cn3)nc2-c2ccc(Cl)cc2Cl)[nH]1` [CHIR, 6-[[2-[[4-(2,4-dichlorophenyl)-5-(5-methyl-1H-imidazol-2-yl)-2-pyrimidinyl]amino]ethyl]amino]-3-pyridinecarbonitrile]?
A: concentration sufficient for midbrain induction ([1]; OTX2, FOXA2 and TH still expressed (qPCR)): 0.8 to 1 µM and 1 µM; concentration at which sharp drop of TH expression starts ([1]; qPCR, relative to TBP): ≥ 1.2 µM

Q: `COC(=O)[C@H]1[C@@H](OC(=O)c2ccccc2)C[C@@H]2CC[C@H]1N2C` [cocaine hydrochloride] was tested. Which calcium event duration ([2]; VM neurons, chronic condition, day 130) did it give?
A: decrease

Q: What about the calcium event duration ([2]; VM neurons, cocaine withdrawal) of the same molecule?
A: without recovery

Q: What about the calcium event frequency ([2]; cocaine treated vs control) of the same molecule?
A: fewer events per minute

Q: What about the calcium event frequency ([2]; withdrawal condition) of the same molecule?
A: only partially recover

Q: And the calcium event duration ([2]; cortical patterned neurons, chronic condition, day 130, vs control, hydrochloride)?
A: increase

Q: What about the calcium event duration ([2]; cortical patterned neurons, chronic condition, day 130, vs control, listed as cocaine, hydrochloride) of the same molecule?
A: significant increase

Q: And the calcium event duration ([2]; striatal neurons, chronic condition, day 130, vs control, hydrochloride)?
A: significant decrease

Q: And the calcium event duration ([2]; striatal neurons, chronic condition, day 130, vs control, listed as cocaine, hydrochloride)?
A: significantly shorter

Q: What about the calcium event duration ([2]; withdrawal condition, striatal and cortical neurons) of the same molecule?
A: not significantly different from the chronic condition

Q: What about the “diameter of TH+ varicosities, rescue by withdrawal” value ([3]; 25-day long withdrawal, striatal and cortical tissue) of the same molecule?
A: failed to rescue

Q: And the “density of TH+ varicosities on axons” value ([3]; cortical tissue)?
A: significantly increased

Q: What about the “diameter of TH+ varicosities” value ([3]; cortical tissue) of the same molecule?
A: significantly reduced

Q: And the “density of TH+ varicosities on axons” value ([3]; striatal tissue)?
A: significantly increased

Q: What about the “diameter of TH+ varicosities” value ([3]; striatal tissue) of the same molecule?
A: significantly reduced

Q: And the “transcriptional change (bulk RNAseq)” value ([4]; VM tissue, chronic and withdrawal vs control)?
A: only little transcriptional change

Q: And the “genes associated with interferon response (such as IFITM2 and IFITM3)” value ([4]; forebrain, chronic and withdrawal conditions)?
A: upregulated

Q: And the “transcriptional change (bulk RNAseq)” value ([4]; forebrain, chronic and withdrawal conditions vs control)?
A: a broad list of genes was differentially expressed

Q: What about the “genes associated with neural circuit formation (GO term analysis)” value ([4]; forebrain, chronic and withdrawal vs control) of the same molecule?
A: downregulation

Q: And the “GSEA of GO terms dendrite development, axon development and synapse organization” value ([4]; forebrain, chronic exposure and withdrawal vs control)?
A: consistently and significantly downregulated
